From PMC10104807, “Modulation of tau tubulin kinases (TTBK1 and TTBK2) impacts ciliogenesis” (Scientific Reports, 2023)

How the values were obtained:
TTBK1 kinase domain = target: T1, TTBK1 kinase domain (Homo sapiens, UniProt Q5TCY1); test: Thermal shift assay; type: binding; settings: kinase domain 2 µM, inhibitor 10 µM
T1 construct: Either the TTBK1 or TTBK2 kinase domain at 2 µM
Protocol: A Real-Time PCR Mx3005p machine (Stratagene) was used to measure the fluorescence spectrum. The Tm shift assays and data evaluation for melting temperatures were performed according to the previously described protocol.

[1] = target: T2, RPS6KA5(Kin.Dom.2-C-terminal) (Homo sapiens, UniProt O75582); test: DiscoverX scanMAX binding assay; settings: 1 μM
T2 construct: RPS6KA5(Kin.Dom.2-C-terminal); purchased Eurofins (radiometric) / Eurofins DiscoverX scanMAX / Reaction Biology / SignalChem
In short: (§1)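 Single-dose (1 µM) binding screen; 403 WT human kinase panel; readout PoC, lower value = stronger displacement.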

PRKD3 = target: T3, PRKD3 (Homo sapiens, UniProt O94806); test: DiscoverX scanMAX binding assay; settings: 1 μM
T3 construct: purchased Eurofins (radiometric) / Eurofins DiscoverX scanMAX / Reaction Biology / SignalChem
In short: as §1

PAK6 = target: T4, PAK6 (Homo sapiens, UniProt Q9NQU5); test: DiscoverX scanMAX binding assay
T4 construct: purchased Eurofins (radiometric) / Eurofins DiscoverX scanMAX / Reaction Biology / SignalChem
In short: as §1

TSSK3 = target: T5, TSSK3 (Homo sapiens, UniProt Q96PN8); test: DiscoverX scanMAX binding assay; settings: 1 μM
T5 construct: purchased Eurofins
T5 sequence (Q96PN8 1-268): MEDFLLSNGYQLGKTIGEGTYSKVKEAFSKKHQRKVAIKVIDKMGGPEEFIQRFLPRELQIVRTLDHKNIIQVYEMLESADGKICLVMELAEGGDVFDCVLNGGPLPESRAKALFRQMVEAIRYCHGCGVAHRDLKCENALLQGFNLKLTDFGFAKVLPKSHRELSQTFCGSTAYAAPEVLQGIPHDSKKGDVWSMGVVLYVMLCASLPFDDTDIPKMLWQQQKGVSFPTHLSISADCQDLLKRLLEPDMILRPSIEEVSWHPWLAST
In short: as §1

CSNK1D = target: T6, CSNK1D (Homo sapiens, UniProt P48730); test: DiscoverX scanMAX binding assay; settings: 1 μM
T6 construct: purchased Eurofins (radiometric) / Eurofins DiscoverX scanMAX / Reaction Biology / SignalChem
In short: as §1

MAP3K3 = target: T7, MAP3K3 (Homo sapiens, UniProt Q99759); test: DiscoverX scanMAX binding assay
T7 construct: purchased Eurofins (radiometric) / Eurofins DiscoverX scanMAX / Reaction Biology / SignalChem
In short: as §1

PAK4 = target: T8, PAK4 (Homo sapiens, UniProt O96013); test: DiscoverX scanMAX binding assay
T8 construct: purchased Eurofins (radiometric) / Eurofins DiscoverX scanMAX / Reaction Biology / SignalChem
In short: as §1

[2] = target: T9, JAK2(JH1domain-catalytic) (Homo sapiens, UniProt O60674); test: DiscoverX scanMAX binding assay
T9 construct: JAK2(JH1domain-catalytic); purchased Eurofins (radiometric) / Eurofins DiscoverX scanMAX / Reaction Biology / SignalChem
In short: as §1

CDC2L2 = target: T10, CDC2L2 (Homo sapiens, UniProt Q9UQ88); test: DiscoverX scanMAX binding assay; settings: 1 μM
T10 construct: purchased Eurofins (radiometric) / Eurofins DiscoverX scanMAX / Reaction Biology / SignalChem
In short: as §1

PRKCE = target: T11, PRKCE (Homo sapiens, UniProt Q02156); test: DiscoverX scanMAX binding assay; settings: 1 μM
T11 construct: purchased Eurofins (radiometric) / Eurofins DiscoverX scanMAX / Reaction Biology / SignalChem
In short: as §1

GRK2 = target: T12, GRK2 (Homo sapiens, UniProt P25098); test: DiscoverX scanMAX binding assay; settings: 1 μM
T12 construct: purchased Eurofins (radiometric) / Eurofins DiscoverX scanMAX / Reaction Biology / SignalChem
In short: as §1

PRKD2 = target: T13, PRKD2 (Homo sapiens, UniProt Q9BZL6); test: DiscoverX scanMAX binding assay; settings: 1 μM
T13 construct: purchased Eurofins (radiometric) / Eurofins DiscoverX scanMAX / Reaction Biology / SignalChem
In short: as §1

PFCDPK1(P.falciparum) = target: T14, PFCDPK1(P.falciparum) (Plasmodium falciparum, UniProt P62344); test: DiscoverX scanMAX binding assay; settings: 1 μM
T14 construct: purchased Eurofins (radiometric) / Eurofins DiscoverX scanMAX / Reaction Biology / SignalChem
In short: as §1

SNARK = target: T15, SNARK (Homo sapiens, UniProt Q9H093); test: DiscoverX scanMAX binding assay; settings: 1 μM
T15 construct: purchased Eurofins (radiometric) / Eurofins DiscoverX scanMAX / Reaction Biology / SignalChem
In short: as §1

MAP3K2 = target: T16, MAP3K2 (Homo sapiens, UniProt Q9Y2U5); test: DiscoverX scanMAX binding assay
T16 construct: purchased Eurofins (radiometric) / Eurofins DiscoverX scanMAX / Reaction Biology / SignalChem
In short: as §1

PRKX = target: T17, PRKX (Homo sapiens, UniProt P51817); test: DiscoverX scanMAX binding assay
T17 construct: purchased Eurofins (radiometric) / Eurofins DiscoverX scanMAX / Reaction Biology / SignalChem
In short: as §1

[3] = target: T18, RPS6KA4(Kin.Dom.2-C-terminal) (Homo sapiens, UniProt O75676); test: DiscoverX scanMAX binding assay; settings: 1 μM
T18 construct: RPS6KA4(Kin.Dom.2-C-terminal); purchased Eurofins (radiometric) / Eurofins DiscoverX scanMAX / Reaction Biology / SignalChem
In short: as §1

AURKB = target: T19, AURKB (Homo sapiens, UniProt Q96GD4); test: DiscoverX scanMAX binding assay; settings: 1 μM
T19 construct: purchased Eurofins (radiometric) / Eurofins DiscoverX scanMAX / Reaction Biology / SignalChem
In short: as §1

PAK7 = target: T20, PAK7 (Homo sapiens, UniProt Q9P286); test: DiscoverX scanMAX binding assay
T20 construct: purchased Eurofins (radiometric) / Eurofins DiscoverX scanMAX / Reaction Biology / SignalChem
In short: as §1

TTBK2 kinase domain = target: T21, TTBK2 kinase domain (Homo sapiens, UniProt Q6IQ55); test: Thermal shift assay; type: binding; settings: kinase domain 2 µM, inhibitor 10 µM
T21 construct: Either the TTBK1 or TTBK2 kinase domain at 2 µM
Protocol: Either the TTBK1 or TTBK2 kinase domain at 2 µM in 10 mM HEPES pH 7.5 and 500 mM NaCl was mixed with the inhibitors at 10 µM in the presence of SyPRO orange dye (Invitrogen). A Real-Time PCR Mx3005p machine (Stratagene) was used to measure the fluorescence spectrum. The Tm shift assays and data evaluation for melting temperatures were performed according to the previously described protocol.

CSNK1E = target: T22, CSNK1E (Homo sapiens, UniProt P49674); test: DiscoverX scanMAX binding assay; settings: 1 μM
T22 construct: purchased Eurofins (radiometric) / Eurofins DiscoverX scanMAX / Reaction Biology / SignalChem
In short: as §1

CDK8 = target: T23, CDK8 (Homo sapiens, UniProt P49336); test: DiscoverX scanMAX binding assay; settings: 1 μM
T23 construct: purchased Eurofins (radiometric) / Eurofins DiscoverX scanMAX / Reaction Biology / SignalChem
In short: as §1

MEK4 = target: T24, MEK4 (Homo sapiens, UniProt P45985); test: DiscoverX scanMAX binding assay; settings: 1 μM
T24 construct: purchased Eurofins (radiometric) / Eurofins DiscoverX scanMAX / Reaction Biology / SignalChem
In short: as §1

MYLK4 = target: T25, MYLK4 (Homo sapiens, UniProt Q86YV6); test: DiscoverX scanMAX binding assay; settings: 1 μM
T25 construct: purchased Eurofins (radiometric) / Eurofins DiscoverX scanMAX / Reaction Biology / SignalChem
In short: as §1

PIKfyve = target: T26, PIKfyve (Homo sapiens, UniProt Q9Y2I7); test: DiscoverX scanMAX binding assay; settings: 1 μM
T26 construct: purchased Eurofins (radiometric) / Eurofins DiscoverX scanMAX / Reaction Biology / SignalChem
In short: as §1

MAP4K5 = target: T27, MAP4K5 (Homo sapiens, UniProt Q9Y4K4); test: DiscoverX scanMAX binding assay; settings: 1 μM
T27 construct: purchased Eurofins
In short: as §1

T21 sequence (Q6IQ55 21-284 limits assumed): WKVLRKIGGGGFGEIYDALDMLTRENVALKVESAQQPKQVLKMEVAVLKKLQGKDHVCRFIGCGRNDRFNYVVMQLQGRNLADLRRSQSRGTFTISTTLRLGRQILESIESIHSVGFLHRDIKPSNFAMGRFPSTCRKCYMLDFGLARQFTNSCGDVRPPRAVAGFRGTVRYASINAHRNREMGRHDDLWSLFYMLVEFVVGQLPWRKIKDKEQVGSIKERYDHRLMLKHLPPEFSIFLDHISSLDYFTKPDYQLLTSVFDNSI
T7 sequence (Q99759 whole entry): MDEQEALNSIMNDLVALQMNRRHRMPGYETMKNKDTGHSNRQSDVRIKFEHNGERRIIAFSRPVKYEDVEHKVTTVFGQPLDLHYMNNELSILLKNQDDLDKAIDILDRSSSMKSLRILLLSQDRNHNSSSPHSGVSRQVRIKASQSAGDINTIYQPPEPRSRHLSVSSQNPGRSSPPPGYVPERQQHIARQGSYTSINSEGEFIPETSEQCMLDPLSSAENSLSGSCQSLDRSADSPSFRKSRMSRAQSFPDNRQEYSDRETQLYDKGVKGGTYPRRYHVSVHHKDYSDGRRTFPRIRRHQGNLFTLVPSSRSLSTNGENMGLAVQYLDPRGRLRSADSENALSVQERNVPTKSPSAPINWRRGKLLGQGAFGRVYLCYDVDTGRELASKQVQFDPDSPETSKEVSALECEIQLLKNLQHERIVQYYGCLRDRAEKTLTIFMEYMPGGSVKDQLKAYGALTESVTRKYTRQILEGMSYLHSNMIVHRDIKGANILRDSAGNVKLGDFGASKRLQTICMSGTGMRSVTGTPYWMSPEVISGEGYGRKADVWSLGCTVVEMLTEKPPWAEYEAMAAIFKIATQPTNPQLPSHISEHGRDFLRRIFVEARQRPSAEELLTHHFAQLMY
T18 sequence (O75676 411-674 limits assumed): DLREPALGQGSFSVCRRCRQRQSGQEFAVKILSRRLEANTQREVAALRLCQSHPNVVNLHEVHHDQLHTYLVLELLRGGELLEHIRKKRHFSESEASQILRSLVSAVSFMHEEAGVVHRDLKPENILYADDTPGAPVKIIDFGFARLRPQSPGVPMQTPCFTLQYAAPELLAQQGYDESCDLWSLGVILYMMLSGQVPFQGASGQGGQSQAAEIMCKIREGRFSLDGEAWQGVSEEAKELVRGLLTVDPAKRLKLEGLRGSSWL
T16 sequence (Q9Y2U5 whole entry): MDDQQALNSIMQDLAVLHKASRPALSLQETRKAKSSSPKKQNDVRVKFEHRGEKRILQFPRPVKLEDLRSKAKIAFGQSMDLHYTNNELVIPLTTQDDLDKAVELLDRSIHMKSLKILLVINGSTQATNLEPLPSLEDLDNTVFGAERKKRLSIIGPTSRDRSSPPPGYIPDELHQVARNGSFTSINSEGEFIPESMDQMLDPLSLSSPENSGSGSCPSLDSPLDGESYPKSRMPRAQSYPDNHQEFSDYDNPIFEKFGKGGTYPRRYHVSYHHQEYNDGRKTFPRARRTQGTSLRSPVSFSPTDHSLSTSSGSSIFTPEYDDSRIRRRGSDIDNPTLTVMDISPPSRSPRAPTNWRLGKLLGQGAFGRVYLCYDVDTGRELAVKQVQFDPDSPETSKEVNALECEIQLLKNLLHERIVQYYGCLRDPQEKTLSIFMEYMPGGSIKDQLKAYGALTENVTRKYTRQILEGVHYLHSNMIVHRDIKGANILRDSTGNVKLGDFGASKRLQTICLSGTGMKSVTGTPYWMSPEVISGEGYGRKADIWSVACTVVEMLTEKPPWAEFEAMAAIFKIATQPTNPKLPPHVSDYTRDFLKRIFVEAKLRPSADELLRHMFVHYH
T8 sequence (O96013 whole entry): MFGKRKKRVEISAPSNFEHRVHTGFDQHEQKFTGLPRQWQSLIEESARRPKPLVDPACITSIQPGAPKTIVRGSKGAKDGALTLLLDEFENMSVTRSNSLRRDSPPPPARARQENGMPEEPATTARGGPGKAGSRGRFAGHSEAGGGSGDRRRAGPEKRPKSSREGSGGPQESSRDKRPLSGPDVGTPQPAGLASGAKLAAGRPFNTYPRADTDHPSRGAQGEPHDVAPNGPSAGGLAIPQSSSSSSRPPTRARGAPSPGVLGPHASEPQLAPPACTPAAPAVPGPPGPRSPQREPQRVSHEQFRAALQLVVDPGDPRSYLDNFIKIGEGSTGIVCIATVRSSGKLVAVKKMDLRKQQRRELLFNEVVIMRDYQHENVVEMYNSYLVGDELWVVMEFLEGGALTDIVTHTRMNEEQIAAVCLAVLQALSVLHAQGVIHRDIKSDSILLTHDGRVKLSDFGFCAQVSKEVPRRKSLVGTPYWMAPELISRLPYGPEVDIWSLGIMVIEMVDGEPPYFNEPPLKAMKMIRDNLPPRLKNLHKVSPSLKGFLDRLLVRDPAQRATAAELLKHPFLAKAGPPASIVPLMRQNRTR
T26 sequence (Q9Y2I7 whole entry): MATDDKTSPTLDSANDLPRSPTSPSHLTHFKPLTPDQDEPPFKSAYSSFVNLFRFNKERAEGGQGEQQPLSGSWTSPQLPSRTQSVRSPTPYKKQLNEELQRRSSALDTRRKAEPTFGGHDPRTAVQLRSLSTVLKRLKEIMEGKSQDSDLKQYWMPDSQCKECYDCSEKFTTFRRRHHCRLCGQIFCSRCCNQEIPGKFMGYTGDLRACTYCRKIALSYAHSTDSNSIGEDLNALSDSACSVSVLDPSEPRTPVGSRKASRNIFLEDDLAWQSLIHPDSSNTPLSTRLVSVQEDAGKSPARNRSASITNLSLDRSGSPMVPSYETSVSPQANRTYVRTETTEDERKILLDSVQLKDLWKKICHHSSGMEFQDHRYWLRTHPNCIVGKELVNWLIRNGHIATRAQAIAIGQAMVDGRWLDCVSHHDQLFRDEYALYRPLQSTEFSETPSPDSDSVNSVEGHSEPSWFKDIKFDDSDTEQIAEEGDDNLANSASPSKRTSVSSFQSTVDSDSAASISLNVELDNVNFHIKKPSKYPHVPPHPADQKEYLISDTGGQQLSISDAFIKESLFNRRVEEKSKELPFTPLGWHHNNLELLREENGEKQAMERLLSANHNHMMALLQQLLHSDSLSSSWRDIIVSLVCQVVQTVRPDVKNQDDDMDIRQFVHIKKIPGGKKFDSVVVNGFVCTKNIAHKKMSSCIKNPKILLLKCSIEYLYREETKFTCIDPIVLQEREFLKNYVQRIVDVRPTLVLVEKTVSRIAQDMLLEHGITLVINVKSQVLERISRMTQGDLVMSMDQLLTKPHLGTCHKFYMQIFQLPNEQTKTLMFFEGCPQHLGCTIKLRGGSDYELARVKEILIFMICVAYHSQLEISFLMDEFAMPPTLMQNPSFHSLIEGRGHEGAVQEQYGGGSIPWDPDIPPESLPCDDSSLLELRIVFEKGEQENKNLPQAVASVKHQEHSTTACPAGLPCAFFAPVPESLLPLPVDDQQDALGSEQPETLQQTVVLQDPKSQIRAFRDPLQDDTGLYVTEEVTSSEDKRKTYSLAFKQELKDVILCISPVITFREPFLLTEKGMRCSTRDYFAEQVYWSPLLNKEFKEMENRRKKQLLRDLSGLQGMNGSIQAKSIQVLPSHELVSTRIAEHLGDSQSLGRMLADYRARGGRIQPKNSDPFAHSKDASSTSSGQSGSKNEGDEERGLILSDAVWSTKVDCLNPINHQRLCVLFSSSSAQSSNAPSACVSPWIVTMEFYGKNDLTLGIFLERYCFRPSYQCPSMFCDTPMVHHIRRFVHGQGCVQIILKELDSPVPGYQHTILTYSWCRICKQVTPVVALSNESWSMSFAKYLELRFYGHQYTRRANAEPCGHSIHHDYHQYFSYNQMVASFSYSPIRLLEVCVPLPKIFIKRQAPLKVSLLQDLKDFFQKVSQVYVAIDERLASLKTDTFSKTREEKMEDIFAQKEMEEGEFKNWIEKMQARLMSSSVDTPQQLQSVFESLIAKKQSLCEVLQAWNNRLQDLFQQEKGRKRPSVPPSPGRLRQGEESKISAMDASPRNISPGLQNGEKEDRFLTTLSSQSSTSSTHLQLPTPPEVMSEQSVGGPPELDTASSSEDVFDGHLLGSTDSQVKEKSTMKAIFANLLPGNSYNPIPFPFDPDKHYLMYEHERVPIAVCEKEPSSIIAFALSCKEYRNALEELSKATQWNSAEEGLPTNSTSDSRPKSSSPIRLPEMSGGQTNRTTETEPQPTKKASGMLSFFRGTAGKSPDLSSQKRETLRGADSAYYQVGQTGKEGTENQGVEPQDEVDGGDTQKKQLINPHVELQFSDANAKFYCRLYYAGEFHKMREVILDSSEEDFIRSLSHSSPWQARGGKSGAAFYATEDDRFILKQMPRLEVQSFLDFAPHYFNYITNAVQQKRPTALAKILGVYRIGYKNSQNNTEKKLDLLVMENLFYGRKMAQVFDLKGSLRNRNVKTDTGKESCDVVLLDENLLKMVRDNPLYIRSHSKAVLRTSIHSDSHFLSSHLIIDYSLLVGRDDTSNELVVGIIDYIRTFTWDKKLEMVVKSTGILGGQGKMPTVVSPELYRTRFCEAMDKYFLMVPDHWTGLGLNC
T1 sequence (Q5TCY1 13-320): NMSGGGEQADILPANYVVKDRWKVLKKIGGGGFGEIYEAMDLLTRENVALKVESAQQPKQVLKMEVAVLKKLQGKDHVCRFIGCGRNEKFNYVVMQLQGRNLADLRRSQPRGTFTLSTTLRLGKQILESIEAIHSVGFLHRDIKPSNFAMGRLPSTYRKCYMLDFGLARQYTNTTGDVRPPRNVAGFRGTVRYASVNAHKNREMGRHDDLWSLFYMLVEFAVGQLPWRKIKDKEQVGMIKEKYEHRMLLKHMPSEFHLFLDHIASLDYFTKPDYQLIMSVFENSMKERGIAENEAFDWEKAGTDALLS
T9 sequence (O60674 849-1124 limits assumed): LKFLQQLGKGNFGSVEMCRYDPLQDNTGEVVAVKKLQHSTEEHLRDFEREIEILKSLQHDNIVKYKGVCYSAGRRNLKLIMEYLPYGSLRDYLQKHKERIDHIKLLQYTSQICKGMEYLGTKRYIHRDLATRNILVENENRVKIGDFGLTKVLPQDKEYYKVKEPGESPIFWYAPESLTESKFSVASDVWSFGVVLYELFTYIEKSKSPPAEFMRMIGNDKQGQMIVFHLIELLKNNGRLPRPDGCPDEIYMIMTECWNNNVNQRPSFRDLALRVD

With `CC(C)(O)C#Cc1ccc2[nH]cc(-c3ccnc(N)n3)c2c1` [Compound 3] the “ΔTm TTBK1” value (TTBK1 kinase domain) was 6.9 °C, the “RPS6KA5(Kin.Dom.2-C-terminal) % control at 1000nM” value [1] was 8.9 % control and the “PRKD3 (PKD3) % control at 1000nM / DiscoverX PoC value” (PRKD3) was 1.3 % control. The “PAK6 % control at 1000nM” value (PAK6; 1 μM) was 6.7 % control, the “TSSK3 % control at 1000nM / DiscoverX PoC value” (TSSK3) was 8.1 % control and the “CSNK1D % control at 1000nM / DiscoverX PoC value” (CSNK1D) was 8.4 % control. The “MAP3K3 % control at 1000nM” value (MAP3K3; 1 μM) was 7.6 % control, the “PAK4 % control at 1000nM” value (PAK4; 1 μM) was 8.3 % control and the “JAK2(JH1domain-catalytic) % control at 1000nM” value ([2]; 1 μM) was 0.5 % control. For the same compound, the “CDC2L2 % control at 1000nM” value (CDC2L2) was 6.6 % control, the “PRKCE % control at 1000nM” value (PRKCE) was 6.8 % control and the “GRK2 % control at 1000nM” value (GRK2) was 9.1 % control. For the same compound, the “PRKD2 % control at 1000nM” value (PRKD2) was 8.3 % control, the “PFCDPK1(P.falciparum) % control at 1000nM” value (PFCDPK1(P.falciparum)) was 7.8 % control and the “SNARK % control at 1000nM” value (SNARK) was 1.7 % control. For the same compound, the “MAP3K2 % control at 1000nM” value (MAP3K2; 1 μM) was 0.8 % control, the “PRKX % control at 1000nM” value (PRKX; 1 μM) was 3.5 % control and the “RPS6KA4(Kin.Dom.2-C-terminal) % control at 1000nM” value [3] was 0.1 % control. The “AURKB % control at 1000nM” value (AURKB) was 3.7 % control, the “PAK7 % control at 1000nM” value (PAK7; 1 μM) was 0.4 % control and the “ΔTm TTBK2” value (TTBK2 kinase domain) was 6.2 °C.

`CC(C)(O)C#Cc1ccc2[nH]c3c(c2c1)-c1nc(N)ncc1CC3` [Compound 1] was tested, and the “ΔTm TTBK1” value (TTBK1 kinase domain) was 6.1 °C, the “CSNK1E % control at 1000nM / DiscoverX PoC value” (CSNK1E) was 6.2 % control and the “CSNK1D % control at 1000nM / DiscoverX PoC value” (CSNK1D) was 3 % control. For the same compound, the “CDK8 % control at 1000nM” value (CDK8) was 4.8 % control, the “MEK4 (MKK4) % control at 1000nM / DiscoverX PoC value” (MEK4) was 7.3 % control and the “PRKCE % control at 1000nM” value (PRKCE) was 3.1 % control. For the same compound, the “RPS6KA4(Kin.Dom.2-C-terminal) % control at 1000nM” value [3] was 7.3 % control, the “MYLK4 % control at 1000nM / DiscoverX PoC value” (MYLK4) was 9.4 % control and the “PIKFYVE % control at 1000nM / DiscoverX PoC value” (PIKfyve) was 0 % control. The “ΔTm TTBK2” value (TTBK2 kinase domain) was 5.6 °C.

In the case of `CC(C)(O)C#Cc1ccc2[nH]c3c(c2c1)-c1nc(N)ncc1CCC3` [AMG28, reference compound], the percent of control (binding) at 1 µM (PAK6; read-out: PAK6 % control at 1000nM) is reported as 2.9%, the percent of control (binding) at 1 µM (MAP3K3; read-out: MAP3K3 % control at 1000nM) is reported as 7.2% and the binding, percent of control at 1 µM (PAK4; read-out: PAK4 % control at 1000nM) is reported as 5.7%. For the same compound, the percent of control (binding) at 1 µM ([2]; read-out: JAK2(JH1domain-catalytic) % control at 1000nM) was 6.9%, the “MEK4 (MKK4) % control at 1000nM / DiscoverX PoC value” (MEK4) was 8.6 % control and the “MAP4K5 % control at 1000nM / DiscoverX PoC value” (MAP4K5) was 6.6 % control. For the same compound, the binding, percent of control at 1 µM (MAP3K2; read-out: MAP3K2 % control at 1000nM) was 3.7%, the percent of control (binding) at 1 µM (PRKX; read-out: PRKX % control at 1000nM) was 4.3% and the “MYLK4 % control at 1000nM / DiscoverX PoC value” (MYLK4) was 2.8 % control. For the same compound, the “PIKFYVE % control at 1000nM / DiscoverX PoC value” (PIKfyve) was 0.4 % control, the percent of control (kinase binding) at 1 µM (PAK7; read-out: PAK7 % control at 1000nM) was 0.3% and the ΔTm at 10 µM (TTBK2 kinase domain) was 6.2 °C.
